Experimental findings from ChEMBL document CHEMBL4417621, “Methods to identify tas2r modulators” (2013) are described below.

Molecules are shown by their SMILES. The source made the active and inactive calls. The calls are words filed in the database; no cut-off is given here.

Assay [1] concerns the target T1, Taste receptor type 2 member 1 (Homo sapiens) (UniProt Q9NYW7).
T1 sequence (whole entry): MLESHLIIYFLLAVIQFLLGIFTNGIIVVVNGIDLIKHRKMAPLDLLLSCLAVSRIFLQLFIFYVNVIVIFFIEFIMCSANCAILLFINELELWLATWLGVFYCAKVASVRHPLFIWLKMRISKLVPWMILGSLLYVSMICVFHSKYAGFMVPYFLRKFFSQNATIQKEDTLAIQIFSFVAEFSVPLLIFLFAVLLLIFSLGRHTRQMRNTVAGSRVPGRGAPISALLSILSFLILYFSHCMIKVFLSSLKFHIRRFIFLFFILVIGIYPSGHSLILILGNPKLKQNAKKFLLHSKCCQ
Kind of assay: Activation of full-length human TAS2R1 expressed in HEK293T/Galpha16-gustducin 44 cells assessed as effect on calcium flux by measuring deltaF/F0 ratio at 6.25 mM by Fluo-4 dye based FLIPR assay. The assay is classed as functional, cell-based. A general note: Calcium assays in cells follow changes in intracellular calcium, usually with a dye or a luminescent sensor.

For assay [2], the target named is T2, Taste receptor type 2 member 46 (Homo sapiens) (UniProt P59540).
T2 sequence (whole entry): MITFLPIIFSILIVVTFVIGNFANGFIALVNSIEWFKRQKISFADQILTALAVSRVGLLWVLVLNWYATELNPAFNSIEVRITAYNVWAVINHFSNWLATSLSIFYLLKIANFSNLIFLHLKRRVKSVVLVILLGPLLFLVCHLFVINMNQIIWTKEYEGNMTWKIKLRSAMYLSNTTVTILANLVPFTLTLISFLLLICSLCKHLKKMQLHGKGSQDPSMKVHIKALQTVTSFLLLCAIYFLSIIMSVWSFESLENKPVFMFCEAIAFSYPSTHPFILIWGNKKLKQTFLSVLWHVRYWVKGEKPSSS
Briefly: Activation of full-length human TAS2R46 expressed in HEK293T/Galpha16-gustducin 44 cells assessed as effect on calcium flux by measuring deltaF/F0 ratio at 50 mM by Fluo-4 dye based FLIPR assay. The assay is classed as functional, cell-based.

For assay [3], the target named is T2, Taste receptor type 2 member 46 (Homo sapiens). Kind of assay: Activation of full-length human TAS2R46 expressed in HEK293T/Galpha16-gustducin 44 cells assessed as effect on calcium flux by measuring deltaF/F0 ratio at 0.7813 mM by Fluo-4 dye based FLIPR assay. It is filed as functional, cell-based.
For assay [4], the target named is T3, Taste receptor type 2 member 10 (Homo sapiens) (UniProt Q9NYW0).
T3 sequence (whole entry): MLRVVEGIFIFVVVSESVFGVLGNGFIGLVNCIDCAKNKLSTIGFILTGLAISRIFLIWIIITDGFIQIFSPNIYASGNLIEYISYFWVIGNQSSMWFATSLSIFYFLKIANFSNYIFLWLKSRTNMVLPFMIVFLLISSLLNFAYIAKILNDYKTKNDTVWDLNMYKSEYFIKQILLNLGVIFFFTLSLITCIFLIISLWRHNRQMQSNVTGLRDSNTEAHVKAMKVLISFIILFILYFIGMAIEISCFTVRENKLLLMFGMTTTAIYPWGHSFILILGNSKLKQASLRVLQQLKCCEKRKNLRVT
Briefly: Activation of full-length human TAS2R10 expressed in HEK293T/Galpha16-gustducin 44 cells assessed as effect on calcium flux by measuring deltaF/F0 ratio at 1.5625 mM by Fluo-4 dye based FLIPR assay. The assay is classed as functional, cell-based.

Assay [5] deals with T1, Taste receptor type 2 member 1 (Homo sapiens). Kind of assay: Activation of full-length human TAS2R1 expressed in HEK293T/Galpha16-gustducin 44 cells assessed as effect on calcium flux by measuring deltaF/F0 ratio at 3.125 mM by Fluo-4 dye based FLIPR assay. The assay is classed as functional, cell-based.
For assay [6], the target named is T2, Taste receptor type 2 member 46 (Homo sapiens). Briefly: Activation of full-length human TAS2R46 expressed in HEK293T/Galpha16-gustducin 44 cells assessed as effect on calcium flux by measuring deltaF/F0 ratio at 0.3906 mM by Fluo-4 dye based FLIPR assay. The assay is classed as functional, cell-based.
For assay [7] the target is unchanged. Kind of assay: Activation of full-length human TAS2R46 expressed in HEK293T/Galpha16-gustducin 44 cells assessed as effect on calcium flux by measuring deltaF/F0 ratio at 25 mM by Fluo-4 dye based FLIPR assay. The assay is classed as functional, cell-based.
The target in assay [8] is T4, Taste receptor type 2 member 31 (Homo sapiens, UniProt P59538).
T4 sequence (P59538 whole entry): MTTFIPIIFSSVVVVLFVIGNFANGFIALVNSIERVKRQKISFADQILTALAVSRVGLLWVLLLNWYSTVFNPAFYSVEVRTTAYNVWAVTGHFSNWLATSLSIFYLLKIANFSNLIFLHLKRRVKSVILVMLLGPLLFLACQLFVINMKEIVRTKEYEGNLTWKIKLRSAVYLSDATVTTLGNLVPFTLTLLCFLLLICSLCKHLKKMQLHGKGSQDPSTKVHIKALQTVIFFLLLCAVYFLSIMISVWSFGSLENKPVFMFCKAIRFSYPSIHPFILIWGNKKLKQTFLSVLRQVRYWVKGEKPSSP
Kind of assay: Agonist activity at full-length human TAS2R44 expressed in HEK293T/Galpha16-gustducin 44 cells assessed as effect on calcium flux by measuring deltaF/F0 ratio by Fluo-4 dye based FLIPR assay. The assay is classed as functional, cell-based.

The species named for a further assay is Homo sapiens. Kind of assay: Induction of bitter sensitivity in bitter sensitive human panelists tasting solution containing 3 mM compound in absence of 13 ppm (E)-4-(2,2,3-trimethylcyclopent-3-enyl)but-2-enoic acid. The assay is classed as functional, organism-based.
Assay [9] concerns the target T1, Taste receptor type 2 member 1 (Homo sapiens). Briefly: Activation of full-length human TAS2R1 expressed in HEK293T/Galpha16-gustducin 44 cells assessed as effect on calcium flux by measuring deltaF/F0 ratio at 0.3906 mM by Fluo-4 dye based FLIPR assay. It is filed as functional, cell-based.
For assay [10], the target named is T5, Taste receptor type 2 member 31 (Homo sapiens) (UniProt P59538).
T5 sequence (whole entry): T4 sequence (P59538 whole entry)
Briefly: Activation of full-length human TAS2R44 expressed in HEK293T/Galpha16-gustducin 44 cells assessed as effect on calcium flux by measuring deltaF/F0 ratio at 0.7813 mM by Fluo-4 dye based FLIPR assay (reference value: […] +/ - 0.002). It is filed as functional, cell-based.

Assay [11] addresses T3, Taste receptor type 2 member 10 (Homo sapiens). Briefly: Activation of full-length human TAS2R10 expressed in HEK293T/Galpha16-gustducin 44 cells assessed as effect on calcium flux by measuring deltaF/F0 ratio by Fluo-4 dye based FLIPR assay. The assay is classed as functional, cell-based.
For assay [12] the target is unchanged. Kind of assay: Activation of full-length human TAS2R10 expressed in HEK293T/Galpha16-gustducin 44 cells assessed as effect on calcium flux by measuring deltaF/F0 ratio at 100 mM by Fluo-4 dye based FLIPR assay. The assay is classed as functional, cell-based.
For assay [13], the target named is T1, Taste receptor type 2 member 1 (Homo sapiens). Briefly: Activation of full-length human TAS2R1 expressed in HEK293T/Galpha16-gustducin 44 cells assessed as effect on calcium flux by measuring deltaF/F0 ratio at 12.5 mM by Fluo-4 dye based FLIPR assay. The assay is classed as functional, cell-based.
In assay [14] the target is T3, Taste receptor type 2 member 10 (Homo sapiens). Kind of assay: Activation of full-length human TAS2R10 expressed in HEK293T/Galpha16-gustducin 44 cells assessed as effect on calcium flux by measuring deltaF/F0 ratio at 3.125 mM by Fluo-4 dye based FLIPR assay. The assay is classed as functional, cell-based.
In assay [15] the target is T1, Taste receptor type 2 member 1 (Homo sapiens). Briefly: Activation of full-length human TAS2R1 expressed in HEK293T/Galpha16-gustducin 44 cells assessed as effect on calcium flux by measuring deltaF/F0 ratio at 1.5625 mM by Fluo-4 dye based FLIPR assay. It is filed as functional, cell-based.
For assay [16] the target is unchanged. Briefly: Activation of full-length human TAS2R1 expressed in HEK293T/Galpha16-gustducin 44 cells assessed as effect on calcium flux by measuring deltaF/F0 ratio at 100 mM by Fluo-4 dye based FLIPR assay. It is filed as functional, cell-based.

As to `OC[C@H]1O[C@H](O[C@]2(CCl)O[C@H](CCl)[C@@H](O)[C@@H]2O)[C@H](O)[C@@H](O)[C@H]1Cl` [SUCRALOSE], the Ratio in [1] was found to be 0.061; in assay [2], 0.171; in assay [3] it was 0.038; in [4], 0.047; in assay [5], 0.059; in [6], 0.041. Moreover, the Ratio came out at 0.106 in assay [7]; 0.052 in [9]; 0.025 in assay [10]; 0.437 in [12]; 0.072 in [13]; 0.053 in [14]. The Ratio in assay [15] amounted to 0.047; in assay [16], 0.518. In assay [8], the EC50 (commonly the concentration giving half of the maximal effect) came to 16.7 mM. The result in the assay filed under Homo sapiens was Active. In assay [11], the Activity result was “Dose-dependent effect”.
